Test: log P by HPLC on a reversed-phase column (C18), EEC Directive 79/831 Annex V.A8
Type: physicochemical
Conditions: HCOOH
Method: The stated log P values were determined in accordance with EEC Directive 79/831 Annex V.A8 by HPLC (High Performance Liquid Chromatography) using a reversed-phase column (C18).

| Structure (SMILES) | log P (HCOOH) |
| --- | --- |
| Cc1cc(C)cc(-c2c(C(F)(F)F)nn(-c3ccc(C(=O)NC4CC4)cc3)c2N)c1 [I-A-Q2-179] | I-A-Q2-179: log P (HCOOH): 3.24 |
| CCCC(NC(=O)c1ccc(-n2nc(C(F)(F)F)c(-c3cc(Cl)cc(Cl)c3)c2N)cc1C)C(F)(F)F (stereo not drawn) [I-A-Q2-201] | I-A-Q2-201: log P (HCOOH): 5.11 |
| Nc1c(-c2cc(Cl)cc(Cl)c2)c(C(F)(F)F)nn1-c1ccc(C(=O)NCC(F)(F)C(F)F)c(Cl)c1 [I-A-Q2-384] | I-A-Q2-384: log P (HCOOH): 4.53 |
| Cc1cc(-n2nc(C(F)(F)F)c(-c3cc(Cl)cc(Cl)c3)c2N)ccc1C(=O)NCCNC(=O)c1ccccn1 [I-A-Q2-036] | I-A-Q2-036: log P (HCOOH): 3.68 |
| Cc1cc(-n2nc(C(F)(F)F)c(-c3cc(Cl)cc(Cl)c3)c2N)ccc1C(=O)NC(C)c1ccc(C(F)(F)F)cn1 (stereo not drawn) [I-A-Q2-240] | I-A-Q2-240: log P (HCOOH): 4.70 |
| Cc1cc(-n2nc(C(F)(F)F)c(-c3cc(Cl)cc(Cl)c3)c2N)ccc1C(=O)N(Cc1ccccn1)Cc1ccccn1 [I-A-Q2-199] | I-A-Q2-199: log P (HCOOH): 3.48 |
| CC(NC(=O)c1ccc(-n2nc(C(F)(F)F)c(-c3ccccc3Cl)c2N)cc1)C(F)(F)F (stereo not drawn) [I-A-Q2-079] | I-A-Q2-079: log P (HCOOH): 3.37 |
| Cc1cc(-n2nc(C(F)(F)F)c(-c3cc(Cl)cc(Cl)c3)c2N)ccc1C(=O)NC(C)c1ccc(Cl)cc1 (stereo not drawn) [I-A-Q2-213] | I-A-Q2-213: log P (HCOOH): 4.89 |
| Cc1cc(C)cc(-c2c(C(F)(F)F)nn(-c3ccc(C(=O)NCc4ccccn4)cc3)c2N)c1 [I-A-Q2-180] | I-A-Q2-180: log P (HCOOH): 2.61 |
| CC(C)NC(=O)c1ccc(-n2nc(C(F)(F)F)c(-c3cc(Cl)cc(Cl)c3)c2N)nc1 [I-A-Q2-097] | I-A-Q2-097: log P (HCOOH): 4.64 |
| Cc1cc(-n2nc(C(F)(F)F)c(-c3cc(Cl)cc(Cl)c3)c2N)ccc1C(=O)NC1CCS(=O)(=O)C1 (stereo not drawn) [I-A-Q2-218] | I-A-Q2-218: log P (HCOOH): 3.33 |
| CC(NC(=O)c1cnc(-n2nc(C(F)(F)F)c(-c3cc(Cl)cc(Cl)c3)c2N)nc1C(F)(F)F)c1ccccn1 (stereo not drawn) [I-A-Q2-021] | I-A-Q2-021: log P (HCOOH): 3.48 |
| Cc1cc(-n2nc(C(F)(F)F)c(-c3cc(Cl)cc(Cl)c3)c2N)ccc1C(=O)NCc1cn(C)cn1 [I-A-Q2-058] | I-A-Q2-058: log P (HCOOH): 1.94 |
| Nc1c(-c2cc(Cl)cc(Cl)c2)c(C(F)(F)F)nn1-c1ccc(C(=O)NC2CC2)cn1 [I-A-Q2-106] | I-A-Q2-106: log P (HCOOH): 4.30 |
| Cc1cc(-n2nc(C(F)(F)F)c(-c3cc(Cl)cc(Cl)c3)c2N)ccc1C(=O)NC1CC1 [I-A-Q2-228] | I-A-Q2-228: log P (HCOOH): 3.78 |
| Cc1cc(-n2nc(C(F)(F)F)c(-c3cc(Cl)cc(Cl)c3)c2N)ccc1C(=O)NC(C)c1cccnc1 (stereo not drawn) [I-A-Q2-231] | I-A-Q2-231: log P (HCOOH): 2.69 |
| Cc1cc(-n2nc(C(F)(F)F)c(-c3cc(Cl)cc(Cl)c3)c2N)ccc1C(=O)N(C)CC(F)(F)F [I-A-Q2-236] | I-A-Q2-236: log P (HCOOH): 4.51 |
| Cc1cc(-n2nc(C(F)(F)F)c(-c3cc(Cl)cc(Cl)c3)c2N)ccc1C(=O)NCC1CCCCC1 [I-A-Q2-263] | I-A-Q2-263: log P (HCOOH): 5.08 |

Same assay, conditions: HCOOH; Table 6, compounds of formula I-B-Q2

| Structure (SMILES) | log P (HCOOH) |
| --- | --- |
| O=C(NCC(F)(F)C(F)F)c1ccc(-n2cc(-c3cc(Cl)cc(Cl)c3)c(C(F)(F)F)n2)c2ccccc12 [I-B-Q2-021] | I-B-Q2-021: log P (HCOOH): 4.58 |

Same assay, conditions: HCOOH; compounds of the formula (IX), Table 11

| Structure (SMILES) | log P (HCOOH) |
| --- | --- |
| Nc1[nH]nc(C(F)(F)F)c1-c1ccc(F)c(F)c1 [IX-201] | IX-201: log P (HCOOH): 2.33 |

Same assay, conditions: HPLC, reversed-phase C18, mobile phase with formic acid

| Structure (SMILES) | log P (HCOOH) |
| --- | --- |
| N#Cc1cc(-n2nc(C(F)(F)F)c(-c3cc(Cl)cc(Cl)c3)c2N)ccc1-n1cc(Br)cn1 [I-A-Q1-078] | I-A-Q1-078: log P (HCOOH): 4.83 |
| N#Cc1cc(-n2nc(C(F)(F)Oc3ccccc3)c(-c3cc(Cl)cc(C(F)(F)F)c3)c2N)ccc1-n1cncn1 [I-A-Q1-074] | I-A-Q1-074: log P (HCOOH): 4.33 |
| N#Cc1cc(-n2nc(C(F)(F)F)c(-c3cc(Cl)cc(Cl)c3)c2N)ccc1-n1cccn1 [I-A-Q1-082] | I-A-Q1-082: log P (HCOOH): 4.34 |
| N#Cc1cc(-n2nc(C(F)(F)F)c(-c3cc(F)c(F)c(F)c3)c2N)ccc1-n1cncn1 [I-A-Q1-041] | I-A-Q1-041: log P (HCOOH): 3.19 |
